Reference: PubChem BioAssay AID330 (DTP/NCI, 2004)
Where “and” joins values, the source holds several entries; their conditions need not be identical. Equal entries are not always repeated. Toxic doses and inconclusive results are not listed. How the source made its calls: active means survival T/C of 150% or more; inactive means T/C below 125% in these data.

Tested on: P388 leukemia ip, CD2F1 mice, survival T/C
Test: NCI In Vivo Anticancer Drug Screen. Data for tumor model P388 Leukemia (intraperitoneal) in CD2F1 (CDF1) mice
Details: endpoint: median survival time, higher = longer survival
Summary of the method: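 Mice carrying the transplanted tumor received test compound or vehicle. Survival was recorded in each group, and the value is the treated-group measurement divided by that of the vehicle-treated control group.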

[1] = dose: 50.0 mg/kg/injection, schedule: Q01DX009 (ip), vehicle: Klucel (hydroxypropylcellulose) (HPC)
[2] = dose: 100.0 mg/kg/injection, schedule: Q01DX009 (ip), vehicle: Klucel (hydroxypropylcellulose) (HPC)
[3] = dose: 200.0 mg/kg/injection, schedule: Q01DX009 (ip), vehicle: Klucel (hydroxypropylcellulose) (HPC)
[4] = dose: 50.0 mg/kg/injection, schedule: Q01DX005 (ip), vehicle: saline with Tween-80
[5] = dose: 100.0 mg/kg/injection, schedule: Q01DX005 (ip), vehicle: saline with Tween-80
[6] = dose: 200.0 mg/kg/injection, schedule: Q01DX005 (ip), vehicle: saline with Tween-80
[7] = dose: 25.0 mg/kg/injection, schedule: Q01DX009 (ip), vehicle: saline with Tween-80
[8] = dose: 50.0 mg/kg/injection, schedule: Q01DX009 (ip), vehicle: saline with Tween-80
[9] = dose: 100.0 mg/kg/injection, schedule: Q01DX009 (ip), vehicle: saline with Tween-80
[10] = dose: 200.0 mg/kg/injection, schedule: Q01DX009 (ip), vehicle: saline with Tween-80
[11] = dose: 50.0 mg/kg/injection, schedule: Q01DX005 (ip), vehicle: Klucel (hydroxypropylcellulose) (HPC)
[12] = dose: 100.0 mg/kg/injection, schedule: Q01DX005 (ip), vehicle: Klucel (hydroxypropylcellulose) (HPC)
[13] = dose: 200.0 mg/kg/injection, schedule: Q01DX005 (ip), vehicle: Klucel (hydroxypropylcellulose) (HPC)
[14] = dose: 60.0 mg/kg/injection, schedule: Q01DX005 (ip), vehicle: Klucel (hydroxypropylcellulose) (HPC)
[15] = dose: 120.0 mg/kg/injection, schedule: Q01DX005 (ip), vehicle: Klucel (hydroxypropylcellulose) (HPC)
[16] = dose: 240.0 mg/kg/injection, schedule: Q01DX005 (ip), vehicle: Klucel (hydroxypropylcellulose) (HPC)
[17] = dose: 12.5 mg/kg/injection, schedule: Q01DX009 (ip), vehicle: saline with Tween-80
[18] = dose: 60.0 mg/kg/injection, schedule: Q01DX005 (ip), vehicle: saline with Tween-80

Measured: T/C

CSc1ccc(NC(=O)Oc2ccccc2I)cc1
inactive: [1] 104 % of control | [2] 104 % of control | [3] 109 % of control

NC(=O)CSCC(=O)c1ccccc1
inactive: [4] 102 % of control | [5] 107 % of control | [6] 102 % of control

COc1ccc(C2NC(=O)NC2=O)cc1 (stereo not drawn)
inactive: [7] 100 % of control | [8] 91 % of control | [9] 93 % of control | [10] 94 % of control

O=C1NC(O)c2cccc(Cl)c2O1 (stereo not drawn)
inactive: [4] 102 % of control | [5] 102 % of control | [6] 107 % of control

O=Cc1c2cnc(c1O)CSCCCCSC2
inactive: dose: 100.0 mg/kg/injection, schedule: Q04DX002 (ip), vehicle: saline with Tween-80 99 % of control | dose: 200.0 mg/kg/injection, schedule: Q04DX002 (ip), vehicle: saline with Tween-80 96 % of control | dose: 400.0 mg/kg/injection, schedule: Q04DX002 (ip), vehicle: saline with Tween-80 101 % of control

Cc1cc(=O)oc2c(C)c3occc(=O)c3cc12
inactive: dose: 100.0 mg/kg/injection, schedule: Q01DX001 (ip), vehicle: saline with Tween-80 99 % of control | dose: 200.0 mg/kg/injection, schedule: Q01DX001 (ip), vehicle: saline with Tween-80 90 % of control | dose: 400.0 mg/kg/injection, schedule: Q01DX001 (ip), vehicle: saline with Tween-80 87 % of control

CNC(=O)OCCC(OC(=O)NC)C1CCC2C3CC=C4CC(OC(=O)c5ccccc5)CCC4(C)C3CCC12C (stereo not drawn)
inactive: [11] 103 % of control | [12] 99 % of control | [13] 92 % of control

O=C1c2ccccc2C(=O)c2c1cccc2-c1ccccc1
inactive: [11] 86 % of control | [12] 87 % of control | [13] 88 % of control

C[N+](C)=NC1CCC(C(C)(C)C)CC1 (stereo not drawn)
inactive: dose: 12.5 mg/kg/injection, schedule: Q01DX005 (ip), vehicle: saline with Tween-80 99 % of control | dose: 25.0 mg/kg/injection, schedule: Q01DX005 (ip), vehicle: saline with Tween-80 99 % of control | [4] 100 % of control

OCC1OC(ONc2ccccc2)C(O)C(O)C1O (stereo not drawn)
inactive: [14] 94 % of control | [15] 99 % of control | [16] 100 % of control

Cc1cc(Nc2ccc(O)cc2)nc(N)n1
inactive: [4] 105 % of control | [5] 99 % of control | [6] 113 % of control

CN(C)[Si](c1ccccc1)(c1ccccc1)N(C)C
inactive: [1] 102 % of control | [2] 102 % of control | [3] 106 % of control

C=CC(C#N)(C=C)C=C
inactive: [17] 104 % of control | [7] 103 % of control | [8] 108 % of control

CCN(CC)CCN1C(=O)[C@H]2CC=CC[C@H]2C1=O
inactive: dose: 50.0 mg/kg/injection, schedule: Q01DX005 (ip), vehicle: saline 99 % of control | dose: 100.0 mg/kg/injection, schedule: Q01DX005 (ip), vehicle: saline 105 % of control | dose: 200.0 mg/kg/injection, schedule: Q01DX005 (ip), vehicle: saline 97 % of control

O=C(O)c1ccccc1C(=O)Nc1ccccc1C(F)(F)F
inactive: dose: 178.0 mg/kg/injection, schedule: Q01DX009 (ip), vehicle: saline with Tween-80 110 % of control | dose: 266.0 mg/kg/injection, schedule: Q01DX009 (ip), vehicle: saline with Tween-80 104 % of control | dose: 400.0 mg/kg/injection, schedule: Q01DX009 (ip), vehicle: saline with Tween-80 101 % of control

O=c1c2ccccc2ccn1O
inactive: [11] 97 % of control | [12] 89 % of control | [13] 89 % of control

CN(CO)N=Nc1ccc(C(F)(F)F)cc1
inactive: [4] 96 % of control | [5] 113 % of control | [6] 113 % of control

C=CCOc1ccccc1/C=N/[N+](C)(C)C
inactive: dose: 12.5 mg/kg/injection, schedule: Q01DX009 (ip), vehicle: saline 100 % of control | dose: 25.0 mg/kg/injection, schedule: Q01DX009 (ip), vehicle: saline 110 % of control

CCCCCCCCCCCCCCCCS(=O)(=O)N/N=C(/c1ccccc1Cl)N1CCOCC1
inactive: [8] 92 % of control | [9] 93 % of control | [10] 94 % of control

COc1cc(CC(CC(=O)O)C(=O)O)cc(OC)c1OC (stereo not drawn)
inactive: [11] 97 % of control | [12] 88 % of control | [13] 97 % of control

Cc1ccc(S(=O)(=O)N2OC2c2ccccc2C)cc1 (stereo not drawn)
inactive: [1] 107 % of control | [2] 106 % of control | [3] 103 % of control

N#C/C(=C1/NC(=O)c2ccccc21)c1nc2ccccc2s1
inactive: [8] 89 % of control | [9] 90 % of control | [10] 96 % of control

CC(C)C1CCC(C)(Cl)C2CCC(C)(Cl)CC12 (stereo not drawn)
inactive: dose: 100.0 mg/kg/injection, schedule: Q04DX003 (ip), vehicle: other 90 % of control | dose: 200.0 mg/kg/injection, schedule: Q04DX003 (ip), vehicle: other 100 % of control | dose: 400.0 mg/kg/injection, schedule: Q04DX003 (ip), vehicle: other 100 % of control

COc1cc(/C=C(\C#N)C(N)=O)cc(Br)c1O
inactive: [4] 100 % of control | [5] 103 % of control | [6] 100 % of control

CCCNC(=S)Nc1ccc(F)cc1F
inactive: dose: 3.12 mg/kg/injection, schedule: Q01DX009 (ip), vehicle: other 108 % of control | dose: 6.25 mg/kg/injection, schedule: Q01DX009 (ip), vehicle: other 107 % of control and 110 % of control and 89 % of control | dose: 12.5 mg/kg/injection, schedule: Q01DX009 (ip), vehicle: other 99 % of control and 100 % of control and 101 % of control | dose: 25.0 mg/kg/injection, schedule: Q01DX009 (ip), vehicle: other 108 % of control and 121 % of control and 96 % of control

CCCCCCCCCCCCCCCCCC(=O)CS(C)(=O)=O
inactive: dose: 50.0 mg/kg/injection, schedule: Q01DX009 (ip), vehicle: suspension in saline 100 % of control | dose: 100.0 mg/kg/injection, schedule: Q01DX009 (ip), vehicle: suspension in saline 100 % of control | dose: 200.0 mg/kg/injection, schedule: Q01DX009 (ip), vehicle: suspension in saline 97 % of control

CCC(C)OC(=Nc1cccc2ccccc12)Nc1cccc2ccccc12 (stereo not drawn)
inactive: [18] 92 % of control | dose: 120.0 mg/kg/injection, schedule: Q01DX005 (ip), vehicle: saline with Tween-80 93 % of control | dose: 240.0 mg/kg/injection, schedule: Q01DX005 (ip), vehicle: saline with Tween-80 93 % of control

Cc1[nH]c2ccc(N(C)C)cc2c(=O)c1CN(CCO)CCO
inactive: [4] 108 % of control | [5] 100 % of control | [6] 100 % of control

N#CC(=Nc1ccc2ccccc2c1)C1=C(O)c2ccccc2C1=O
inactive: [11] 101 % of control | [12] 101 % of control | [13] 110 % of control

NNC(=O)C(N)=O
inactive: [17] 100 % of control | [7] 104 % of control | [8] 100 % of control | [9] 97 % of control

CC(=O)Nc1nc(C)c(CCCNS(=O)(=O)c2ccc([N+](=O)[O-])cc2)c(=O)[nH]1
inactive: dose: 15.0 mg/kg/injection, schedule: Q01DX005 (ip), vehicle: saline with Tween-80 100 % of control | dose: 30.0 mg/kg/injection, schedule: Q01DX005 (ip), vehicle: saline with Tween-80 101 % of control | [18] 93 % of control and 95 % of control

COc1ccc2c(c1)NC(C(C)C)=NS2(=O)=O
inactive: [14] 99 % of control | [15] 95 % of control | [16] 97 % of control
